Experimental data from article PMC9867241, “Antioxidant and Cytotoxic Activity of New Polyphenolic Derivatives of Quinazolin-4(3H)-one: Synthesis and In Vitro Activities Evaluation” (Pharmaceutics, 2022).
pIC50: −log10 of the molar value. Values after ≈ are worked out from the molar mass of the structure shown.

What was measured:
[1] = DPPH˙ radical scavenging assay
Procedure: The stock solutions (1 mg/mL) of the tested compounds and the controls were obtained, by dissolving the substances in dimethyl sulfoxide (DMSO). Using Jasco V-530, an UV-VIS spectrophotometer (Jasco International Co., Ltd., Tokyo, Japan), we performed the colorimetric determinations in low-volume single-use 10 mm width cuvettes.
The assays were performed in triplicate and the results are presented as averages for each assay.
The DPPH˙ radical scavenging assay is based on the transfer of one hydrogen from the analyzed compound to the violet stable free radical DPPH˙ (2,2-diphenyl-1-picrylhydrazyl), as we convert it into a yellow compound. The absorbance of the reagent mixed with samples presented inversely proportional values to the amount of DPPH˙ neutralized. The absorbance of the reagent was measured at λ = 517 nm, according to our previous reports. The assay was made in the presence of various concentrations of samples. The used protocol is based on the report of Brand-Williams et al..

[2] = Phosphomolybdate assay for total antioxidant capacity (TAC); design: concentration or dose not given beside the values; conditions: for TAC, % of Activity of Trolox: relative to Trolox; for TAC, % of Activity of Ascorbic Acid: relative to ascorbic acid
Description: Using the phosphomolybdate assay, we determined the total antioxidant capacity (TAC) of the tested compounds. We measured the solutions’ absorbances against a blank sample at λ = 695 nm, using a previously reported procedure by our group, based on initial literature reports. Using Equation (4), we calculated the TAC of 5a–d and 6a–d compounds.
At acidic pH, the tested compounds transfer one electron to Mo^6+ to reduce it to Mo^5+.

[3] = Cupric reducing antioxidant capacity (CUPRAC) assay; design: concentration or dose not given beside the values; conditions: for CUPRAC, % of Activity of Trolox: relative to Trolox; for CUPRAC, % of Activity of Ascorbic Acid: relative to ascorbic acid
Procedure: The ability to donate electrons was evaluated for the compounds 5a–d and 6a–d, by the CUPRAC (CUPric reducing antioxidant capacity) method. The absorbance was measured against a blank sample, at λ = 450 nm. The assay was performed based on our group’s previous report by the adaptation of the initial report of Alam et al., Özyürek et al. and Apak et al.. With the use of Equation (4), the cupric ion reduction by compounds 5a–d and 6a–d was expressed as a percentage of the reference compound activity.
The Cu^2+ ions are reduced to Cu^+ ions by the electron-donating compounds. The Cu^+ ions are chelated by neocuproine, giving a colored complex with absorbance proportional to the quantity of Cu^+ ions that resulted.

[4] = Fe^2+ chelation assay (ferrozine competition)
Procedure: In the protocol used for evaluating the Fe^2+ chelating ability of the compounds, the absorbances of the solutions were determined at λ = 562 nm, against a blank sample. The method was adapted from the initial report of Benzie and Strain et al., which was previously reported by our group. Using Equation (5), we calculated the iron chelation capacities of the 5a–d and 6a–d compounds:(5) iron chelation (%)=control absorbance−sample absorbance/control absorbance×100
The chelating capacity of the tested compounds of Fe^2+ was evaluated based on their competition for Fe^2+ with ferrozine.

[5] = test system: A549 (lung adenocarcinoma) cells; assay: Cytotoxicity, Alamar blue assay, A549 cells; format: cell-based; conditions: Homo sapiens, 24 h exposure
Description: (§1) Normal human foreskin (BJ) fibroblasts and two types of cancer cells, namely A549 (lung adenocarcinoma) and LNCaP (prostate carcinoma) purchased from American Type Culture Collection (Manassas, VA, USA), were used in the experiments. Each cell line was maintained in a different culture medium, depending on the metabolic necessities of the cells. BJ cells were maintained in Dulbecco’s modified Eagle’s medium (DMEM) with low glucose. A549 cells were maintained in DMEM with high glucose […], while LNCaP cells were grown in Roswell Park Memorial Institute (RPMI) 1640 medium with high glucose (5 g/L). All media used were supplemented with 10% fetal bovine serum (FBS) and were refreshed every two days. Cells were used in experiments or subcultured when they reached 70–80% confluence.
(§2) In 100 µL in 96-well plates, a number of 30,000 LNCaP cells, 15,000 A549 cells, and 7500 normal (BJ) cells were seeded. Because the cells have different sizes and volumes, the purpose of the different seedings was to achieve a confluency of 70–80% after 24 h. All types of cells were further exposed to the synthesized compounds (5a–d and 6a–d) for 24 h, at a concentration ranging from 12.5 to 100 µg/mL. Post-exposure, the media were removed, and the cells were washed with phosphate buffer saline (PBS). Their viability was evaluated using Alamar blue (AB) assay as previously described. Briefly, the cells were incubated with a 200 µM resazurin solution for 4 h. Using a Synergy 2 multi-mode microplate reader, we measured the fluorescence. The measurement was performed at λexcitation = 530/25 nm; λemission = 590/35 nm. We conducted the experiments using three biological replicates, each one including 6 technical replicates. As negative controls (NC), cells exposed to culture medium containing 0.2% DMSO were used. Compared to the NC (100%), the results were expressed as relative values. We used IC50 values for the potency evaluation, and calculated them for each cell line, using the dose-effect curves obtained by fitting the experimental data with a 4-parameter logistic curve.
(§3) Mean values ± standard deviation (SD) values of at least three biological replicates were used to calculate experimental data. One-way analysis of variance (ANOVA) with a post hoc Holm–Sidak test was used to statistically examine the data. Using SigmaPlot 11.0 software (Systat, Software Inc., Chicago, IL, USA), we performed the graphical display and data analysis. From a statistical point of view, the results were considered different, at values of p < 0.05.

[6] = test system: LNCaP (prostate carcinoma) cells; assay: Cytotoxicity, Alamar blue assay, LNCaP cells; format: cell-based; conditions: Homo sapiens, 24 h exposure
Description: as §1, §2, §3

[7] = test system: normal human foreskin fibroblasts (BJ); assay: Cytotoxicity, Alamar blue assay, BJ cells; format: cell-based; conditions: Homo sapiens, Fibroblast; 24 h exposure, Alamar blue
Description: as §1, §2, §3

With `C=CCn1c(SCC(=O)NN=Cc2ccc(O)c(O)c2O)nc2ccccc2c1=O` [Compound 5a, 2-((3-Allyl-4-oxo-3,4-dihydroquinazolin-2-yl)thio)-N’-(2,3,4-trihydroxybenzylidene)acetohydrazide] the pIC50 [1] was 5.19, the “IC50 (DPPH˙ scavenging)” value [1] was 2.76 µg/mL (≈ 6.47 µM) and the “% of DPPH˙ Scavenging” value ([1]; 1.25 µg/mL) was 41.09%. The “% of DPPH˙ Scavenging” value ([1]; 2.5 µg/mL) was 49.94%, the “% of DPPH˙ Scavenging” value ([1]; 3.75 µg/mL) was 54.93% and the “% of DPPH˙ Scavenging” value ([1]; 5 µg/mL) was 62.06%. For the same compound, the “% of DPPH˙ Scavenging” value ([1]; 7.5 µg/mL) was 73.89%, the “% of DPPH˙ Scavenging” value ([1]; 10 µg/mL) was “+ (+ represents more than 95%)” and the “% of DPPH˙ Scavenging” value ([1]; 12.5 µg/mL) was “+ (+ represents more than 95%)”. For the same compound, the “% of DPPH˙ Scavenging” value ([1]; 15 µg/mL) was “+ (+ represents more than 95%)”, the “TAC, % of Activity of Trolox” value [2] was 176.42% and the “TAC, % of Activity of Ascorbic Acid” value [2] was 91.43%. For the same compound, the “CUPRAC, % of Activity of Trolox” value [3] was 126.56%, the “CUPRAC, % of Activity of Ascorbic Acid” value [3] was 132.79% and the “Ferrous ions Chelation Capacity (%)” value ([4]; 17.70 µg/mL) was “- (- represents less than 5%)”. For the same compound, the “Ferrous ions Chelation Capacity (%)” value ([4]; 20.59 µg/mL) was “- (- represents less than 5%)”, the “Ferrous ions Chelation Capacity (%)” value ([4]; 29.41 µg/mL) was “- (- represents less than 5%)” and the “Ferrous ions Chelation Capacity (%)” value ([4]; 44.11 µg/mL) was “- (- represents less than 5%)”. The “Ferrous ions Chelation Capacity (%)” value ([4]; 58.82 µg/mL) was 18.44%, the “Ferrous ions Chelation Capacity (%)” value ([4]; 88.23 µg/mL) was 34.12% and the “Ferrous ions Chelation Capacity (%)” value ([4]; 117.64 µg/mL) was 45.93%. For the same compound, the “Ferrous ions Chelation Capacity (%)” value ([4]; 257.46 µg/mL) was 71.76%, the “Ferrous ions Chelation Capacity (%)” value ([4]; 343.28 µg/mL) was 86.30% and the IC50 [5] was 30.9 µg/mL. The IC50 [6] was 45.6 µg/mL, the IC50 [7] was over 100 µg/mL and the melting point was 213 °C.

For `CC(=NNC(=O)CSc1nc2ccccc2c(=O)n1Cc1ccccc1)c1ccc(O)cc1O` [Compound 6b, 2-((3-Benzyl-4-oxo-3,4-dihydroquinazolin-2-yl)thio)-N’-(1-(2,4-dihydroxyphenyl)ethylidene)acetohydrazide], the pIC50 [1] was under 4.52, the “IC50 (DPPH˙ scavenging)” value [1] was over 15 µg/mL and the “% of DPPH˙ Scavenging” value ([1]; 1.25 µg/mL) was “- (- represents less than 5%)”. For the same compound, the “% of DPPH˙ Scavenging” value ([1]; 2.5 µg/mL) was “- (- represents less than 5%)”, the “% of DPPH˙ Scavenging” value ([1]; 3.75 µg/mL) was “- (- represents less than 5%)” and the “% of DPPH˙ Scavenging” value ([1]; 5 µg/mL) was “- (- represents less than 5%)”. For the same compound, the “% of DPPH˙ Scavenging” value ([1]; 7.5 µg/mL) was “- (- represents less than 5%)”, the “% of DPPH˙ Scavenging” value ([1]; 10 µg/mL) was “- (- represents less than 5%)” and the “% of DPPH˙ Scavenging” value ([1]; 12.5 µg/mL) was “- (- represents less than 5%)”. For the same compound, the “% of DPPH˙ Scavenging” value ([1]; 15 µg/mL) was 11.59%, the “TAC, % of Activity of Trolox” value [2] was 101.03% and the “TAC, % of Activity of Ascorbic Acid” value [2] was 52.36%. For the same compound, the “CUPRAC, % of Activity of Trolox” value [3] was 22.63%, the “CUPRAC, % of Activity of Ascorbic Acid” value [3] was 23.74% and the “Ferrous ions Chelation Capacity (%)” value ([4]; 17.70 µg/mL) was “- (- represents less than 5%)”. For the same compound, the “Ferrous ions Chelation Capacity (%)” value ([4]; 20.59 µg/mL) was “- (- represents less than 5%)”, the “Ferrous ions Chelation Capacity (%)” value ([4]; 29.41 µg/mL) was “- (- represents less than 5%)” and the “Ferrous ions Chelation Capacity (%)” value ([4]; 44.11 µg/mL) was “- (- represents less than 5%)”. The “Ferrous ions Chelation Capacity (%)” value ([4]; 58.82 µg/mL) was “- (- represents less than 5%)”, the “Ferrous ions Chelation Capacity (%)” value ([4]; 88.23 µg/mL) was “- (- represents less than 5%)” and the “Ferrous ions Chelation Capacity (%)” value ([4]; 117.64 µg/mL) was “- (- represents less than 5%)”. For the same compound, the “Ferrous ions Chelation Capacity (%)” value ([4]; 257.46 µg/mL) was “- (- represents less than 5%)”, the “Ferrous ions Chelation Capacity (%)” value ([4]; 343.28 µg/mL) was “- (- represents less than 5%)” and the IC50 [5] was 42.2 µg/mL. The IC50 [6] was 30.4 µg/mL and the IC50 [7] was over 100 µg/mL.

For `CCn1c(SCC(=O)NN=C(C)c2ccc(O)cc2O)nc2ccccc2c1=O` [Compound 6c, N’-(1-(2,4-dihydroxyphenyl)ethylidene)-2-((3-ethyl-4-oxo-3,4-dihydroquinazolin-2-yl)thio)acetohydrazide], the pIC50 [1] was under 4.52, the “IC50 (DPPH˙ scavenging)” value [1] was over 15 µg/mL and the “% of DPPH˙ Scavenging” value ([1]; 1.25 µg/mL) was “- (- represents less than 5%)”. The “% of DPPH˙ Scavenging” value ([1]; 2.5 µg/mL) was “- (- represents less than 5%)”, the “% of DPPH˙ Scavenging” value ([1]; 3.75 µg/mL) was “- (- represents less than 5%)” and the “% of DPPH˙ Scavenging” value ([1]; 5 µg/mL) was “- (- represents less than 5%)”. For the same compound, the “% of DPPH˙ Scavenging” value ([1]; 7.5 µg/mL) was “- (- represents less than 5%)”, the “% of DPPH˙ Scavenging” value ([1]; 10 µg/mL) was “- (- represents less than 5%)” and the “% of DPPH˙ Scavenging” value ([1]; 12.5 µg/mL) was 10.11%. The “% of DPPH˙ Scavenging” value ([1]; 15 µg/mL) was 14.89%, the “TAC, % of Activity of Trolox” value [2] was 110.05% and the “TAC, % of Activity of Ascorbic Acid” value [2] was 57.03%. For the same compound, the “CUPRAC, % of Activity of Trolox” value [3] was 29.09%, the “CUPRAC, % of Activity of Ascorbic Acid” value [3] was 30.52% and the “Ferrous ions Chelation Capacity (%)” value ([4]; 17.70 µg/mL) was “- (- represents less than 5%)”. The “Ferrous ions Chelation Capacity (%)” value ([4]; 20.59 µg/mL) was “- (- represents less than 5%)”, the “Ferrous ions Chelation Capacity (%)” value ([4]; 29.41 µg/mL) was “- (- represents less than 5%)” and the “Ferrous ions Chelation Capacity (%)” value ([4]; 44.11 µg/mL) was “- (- represents less than 5%)”. For the same compound, the “Ferrous ions Chelation Capacity (%)” value ([4]; 58.82 µg/mL) was “- (- represents less than 5%)”, the “Ferrous ions Chelation Capacity (%)” value ([4]; 88.23 µg/mL) was “- (- represents less than 5%)” and the “Ferrous ions Chelation Capacity (%)” value ([4]; 117.64 µg/mL) was “- (- represents less than 5%)”. The “Ferrous ions Chelation Capacity (%)” value ([4]; 257.46 µg/mL) was “- (- represents less than 5%)”, the “Ferrous ions Chelation Capacity (%)” value ([4]; 343.28 µg/mL) was “- (- represents less than 5%)” and the IC50 [5] was over 100 µg/mL. For the same compound, the IC50 [6] was over 100 µg/mL and the IC50 [7] was over 100 µg/mL.
